Values quoted from earlier work in paper PMC6851324, “Design and development of stapled transmembrane peptides that disrupt the activity of G-protein–coupled receptor oligomers” (The Journal of Biological Chemistry, 2019).
Where no end group is shown, it is not given here.

Test system: 5-HT2AR–CB1R heteromers
Design: method as in 2 sources, ref 16 = [16]; PMID 26158621; doi:10.1371/journal.pbio.1002194; 16. Viñals X. , Moreno E. , Lanfumey L. , Cordomí A. , Pastor A. , de La Torre R. , Gasperini P. , Navarro G. , Howell L. A. , Pardo L. , Lluís C. , Canela E. I. , McCormick P. J. , Maldonado R. , and ||| ref 4, unpublished observations
Settings: synthetic TM-mimicking peptides fused to HIV-TAT; cited from earlier work

| Sequence | disruption of 5-HT2AR–CB1R heteromers (previous studies) |
| --- | --- |
| ETYLMFWIGVTSVLLLFIVYAYMYILWGRKKRRQRRR [TM5-TAT, reference compound] | selectively disrupted |
| GRKKRRQRRRKTLVLILVVLIICWGPLLAIMVY [TM6-TAT, reference compound] | selectively disrupted |
